Here are results for 30 compounds from article PMC7144022, “Quinolinecarboxamides Inhibit the Replication of the Bovine Viral Diarrhea Virus by Targeting a Hot Spot for the Inhibition of Pestivirus Replication in the RNA-Dependent RNA Polymerase” (Molecules, 2020).

Data set [1] in a line: Cytotoxicity assay, proliferation of exponentially growing MDBK cells (MTS/PMS). The data set is classed as cell-based, bovine. Conditions: bovine. The protocol: Assays were carried out, as described previously.
Data set [2] deals with BVDV NADL virus. Kind of data set: CPE-based antiviral assay, BVDV NADL in MDBK cells (MTS/PMS). To be noted: for EC50: Bovine viral diarrhea virus isolates and strains, MDBK, 72 h; for S.I.: selectivity index, CC50 vs EC50.
[3] abbreviates: sheet CSFCII#, potency relative to TO502-2403 (EC50 0.2 µM).
[4] abbreviates: sheet CSFCI#, potency relative to TO505-6180 (EC50 0.07 µM).

The term CC50 denotes the concentration that lowers cell viability or growth by half. By EC50 is commonly meant the concentration needed to bring the measured effect to its halfway point. Read a high EC50 as a less potent agent. Turning to `Cc1ccc2nc(NC(=O)c3cc(-c4ccccc4F)nc4ccccc34)sc2c1` [CSFC-61, Fc1ccccc1c3nc2ccccc2c(c3)C(=O)Nc4nc5ccc(C)cc5s4], the CC50 at 5 days in data set [1] is > 100 µM. In addition, in data set [2], the midpoint of the response, the EC50, lay at 200 nM and the S.I. was found to be 500. The fold increase in data set [2] (setting [3]) is listed as 1.00.

Consider `Cc1csc(-c2cc(C(=O)Nc3ccn(-c4ccccc4)n3)c3ccccc3n2)c1` [CSFC-52, Cc1cc(sc1)c3nc2ccccc2c(c3)C(=O)Nc4ccn(n4)c5ccccc5], for which the CC50 at 5 days in data set [1] was > 100 µM. In data set [2], the EC50 turned out to be 1200 nM and the S.I. came to 83. In addition, the fold increase in data set [2] (setting [3]) is 0.17.

Turning to `COc1ccc2nc(NC(=O)c3cc(-c4ccc(F)cc4)nc4ccccc34)sc2c1` [CSFC-68, Fc1ccc(cc1)c3nc2ccccc2c(c3)C(=O)Nc4nc5ccc(cc5s4)OC], the CC50 at 5 days in data set [1] was > 100 µM. Besides, in data set [2], a half-maximal response (EC50) required 200 nM and the S.I. came to 500. In addition, the fold increase in data set [2] (setting [3]) is reported as 1.00.

`O=C(Nc1ccn(-c2ccccc2)n1)c1cc(-c2cc3ccccc3o2)nc2ccccc12` [CSFC-92, O=C(Nc1ccn(n1)c2ccccc2)c3cc(nc4ccccc34)c5cc6ccccc6o5]: the CC50 at 5 days in data set [1] is > 100 µM. Further, in data set [2], the EC50 amounted to 300 nM and the S.I. was determined as 333. Further, the fold increase in data set [2] (setting [3]) stood at 0.67.

With `COc1ccc(-c2cc(C(=O)Nc3ccn(-c4ccccc4)n3)c3ccccc3n2)cc1F` [CSFC-107, COc1ccc(cc1F)c3nc2ccccc2c(c3)C(=O)Nc4ccn(n4)c5ccccc5], the CC50 at 5 days in data set [1] was > 100 µM. In data set [2], this compound had a 50% effective concentration (EC50) of 600 nM and a S.I. of 167. Besides, the fold increase in data set [2] (setting [3]) worked out at 0.33.

For `Cc1cccc(-n2ccc(NC(=O)c3cc(-c4ccccc4)nc4ccccc34)n2)c1` [CSFC-133, Cc1cccc(c1)n2ccc(n2)NC(=O)c4cc(nc3ccccc34)c5ccccc5], the CC50 at 5 days in data set [1] is > 100 µM. In data set [2], this compound showed an EC50 of 20 nM. In addition, the fold increase in data set [2] (setting [3]) is 10.00.

As to `Cc1cccc2sc(NC(=O)c3cc(-c4ccco4)nc4ccc(Cl)cc34)nc12` [CSFC-84, Clc1cc2c(cc1)nc(cc2C(=O)Nc3nc4c(C)cccc4s3)c5ccco5], the half-maximal cytotoxic concentration (CC50) at 5 days in data set [1] is > 100 µM. In data set [2], this compound gave an EC50 of 11500 nM and a S.I. of 9. For the same compound, in data set [2] (setting [3]), the fold increase is listed as 0.0174.

With `COc1ccc2nc(NC(=O)c3cc(-c4ccco4)nc4ccccc34)sc2c1` [CSFC-38, COc1ccc2nc(NC(=O)c3cc(nc4ccccc43)c3ccco3)sc2c1], the CC50 at 5 days in data set [1] is > 100 µM. In data set [2], the half-maximal effective concentration (EC50) was 90 nM and the S.I. turned out to be 1111. Further, the fold increase in data set [2] (setting [4]) is given as 0.78.

As to `Cc1cc(NC(=O)c2cc(-c3ccco3)nc3ccccc23)on1` [CSFC-42, O=C(Nc1cc(C)no1)c3cc(nc2ccccc23)c4ccco4], the CC50 at 5 days in data set [1] is > 100 µM. In data set [2], the midpoint of the response, the EC50, lay at 17500 nM and the S.I. came to 6. Also, in data set [2] (setting [3]), the fold increase was found to be 0.0114.

With `O=C(Nc1nc2ccccc2[nH]1)c1cc(-c2ccccc2)nc2ccccc12` [CSFC-3, O=C(Nc1nc2ccccc2[NH]1)c1cc(nc2ccccc21)c1ccccc1], the 50% cytotoxic concentration (CC50) at 5 days in data set [1] is > 100 µM. For the same compound, in data set [2], the EC50 was > 100000 nM and the S.I. is 1. In data set [2] (setting [4]), the fold increase is listed as 0.0007.

With `Cc1ccc2nc(NC(=O)c3nccn3C)sc2c1` [CSFC-33, Cn1ccnc1C(=O)Nc1nc2ccc(C)cc2s1], the CC50 at 5 days in data set [1] is > 100 µM. Moreover, in data set [2], the EC50 was 46000 nM and the S.I. came to 2. Besides, the fold increase in data set [2] (setting [4]) was 0.00152.

In the case of `COc1ccc2nc(NC(=O)c3cc(-c4cc(C)oc4C)nc4ccccc34)sc2c1` [CSFC-86, O=C(c2cc(nc1ccccc12)c3cc(oc3C)C)Nc4nc5ccc(cc5s4)OC], the CC50 at 5 days in data set [1] was > 100 µM. In data set [2], this compound returned a concentration giving a half-maximal response (EC50) of 300 nM and a S.I. of 333. For the same compound, in data set [2] (setting [3]), the fold increase is 0.67.

For the compound `Cc1c(-c2ccco2)nc2ccccc2c1C(=O)Nc1nc2c(C)cccc2s1` [CSFC-105, Cc2c(nc1ccccc1c2C(=O)Nc3nc4c(C)cccc4s3)c5ccco5], in data set [1], the CC50 at 5 days was > 100 µM. In data set [2], this compound came in with a half-maximal effective concentration (EC50) of 700 nM and a S.I. of 143. Further, the fold increase in data set [2] (setting [3]) came to 0.29.

For `Cc1cc(NC(=O)c2cc(-c3ccccc3)nc3ccccc23)on1` [CSFC-41, O=C(Nc1cc(C)no1)c3cc(nc2ccccc23)c4ccccc4], the cytotoxic concentration (CC50) at 5 days in data set [1] was > 100 µM. In data set [2], this compound came in with a 50% effective concentration (EC50) of 34600 nM and a S.I. of 3. Moreover, in data set [2] (setting [3]), the fold increase came to 0.00578.

For `COc1ccc2nc(NC(=O)c3cc(-c4ccccc4)nc4ccccc34)sc2c1` [CSFC-9, COc1ccc2nc(NC(=O)c3cc(nc4ccccc43)c3ccccc3)sc2c1], the CC50 at 5 days in data set [1] is > 100 µM. Moreover, in data set [2], the midpoint of the response, the EC50, lay at 300 nM and the S.I. worked out at 333. Also, the fold increase in data set [2] (setting [4]) came to 0.23.

Take `O=C(Nc1nc(-c2ccccc2)cs1)c1cc(-c2ccccc2)nc2ccccc12` [CSFC-60, O=C(Nc1nc(cs1)c2ccccc2)c4cc(nc3ccccc34)c5ccccc5]: in data set [1], the cytotoxic concentration (CC50) at 5 days is > 100 µM. For the same compound, in data set [2], the EC50 stood at 700 nM and the S.I. turned out to be 143. In addition, the fold increase in data set [2] (setting [3]) came to 0.29.

Regarding `Cc1cccc2sc(NC(=O)c3cc(-c4cccs4)nc4c(F)cccc34)nc12` [CSFC-101, Fc5cccc1c5nc(cc1C(=O)Nc2nc3c(C)cccc3s2)c4cccs4], the CC50 at 5 days in data set [1] was 23.2 µM. In data set [2], this compound yielded an EC50 of 300 nM and a S.I. of 77. Moreover, in data set [2] (setting [3]), the fold increase is reported as 0.67.

As for `O=C(Nc1ccn(-c2cccc(F)c2)n1)c1cc(-c2cccnc2)nc2ccccc12` [CSFC-127, Fc1cccc(c1)n2ccc(n2)NC(=O)c4cc(nc3ccccc34)c5cccnc5], the 50% cytotoxic concentration (CC50) at 5 days in data set [1] was > 100 µM. Besides, it took 100000 nM to reach a half-maximal effect in data set [2] (EC50). In addition, the fold increase in data set [2] (setting [3]) stood at 0.002.

Regarding `O=C(Nc1ccn(-c2ccccc2)n1)c1cc(-c2cccs2)nc2ccc(Br)cc12` [CSFC-122, O=C(Nc1ccn(n1)c2ccccc2)c4cc(nc3ccc(Br)cc34)c5cccs5], in data set [1], the CC50 at 5 days was > 100 µM. In data set [2], this compound returned an EC50 of 600 nM and a S.I. of 167. In data set [2] (setting [3]), the fold increase is 0.33.

Turning to `COc1ccc2nc(NC(=O)c3cc(-c4cccc(F)c4)nc4ccccc34)sc2c1` [CSFC-67, Fc1cccc(c1)c3nc2ccccc2c(c3)C(=O)Nc4nc5ccc(cc5s4)OC], the cytotoxic concentration (CC50) at 5 days in data set [1] is > 100 µM. In data set [2], this compound displayed an EC50 of 900 nM and a S.I. of 111. Further, the fold increase in data set [2] (setting [3]) is given as 0.22.

As for `O=C(Nc1nc2c(F)cccc2s1)c1cc(-c2ccccc2)nc2ccccc12` [CSFC-150, Fc1cccc2sc(nc12)NC(=O)c1cc(nc2ccccc21)c1ccccc1], the CC50 at 5 days in data set [1] came to 8 ± 1 µM. Moreover, in data set [2], the half-maximal effective concentration (EC50) was determined as 100 nM and the S.I. was 80. The fold increase in data set [2] (setting [4]) is listed as 0.70.

Regarding `Cc1cccc2sc(NC(=O)c3cc(-c4cnccn4)nc4ccccc34)nc12` [CSFC-116, Cc1cccc2sc(nc12)NC(=O)c4cc(nc3ccccc34)c5cnccn5], the cytotoxic concentration (CC50) at 5 days in data set [1] was > 100 µM. In data set [2], the concentration giving a half-maximal response (EC50) turned out to be 300 nM and the S.I. is given as 333. Moreover, the fold increase in data set [2] (setting [3]) was determined as 0.67.

As to `Cc1cccc2sc(NC(=O)c3cc(-c4cc(Cl)sc4Cl)nc4ccccc34)nc12` [CSFC-85, Clc1cc(c(Cl)s1)c3nc2ccccc2c(c3)C(=O)Nc4nc5c(C)cccc5s4], the cytotoxic concentration (CC50) at 5 days in data set [1] was > 100 µM. In data set [2], this compound displayed an EC50 of 300 nM and a S.I. of 333. The fold increase in data set [2] (setting [3]) is on record as 0.67.

Consider `Cc1cccc2sc(NC(=O)c3cc(-c4cccc(F)c4)nc4ccccc34)nc12` [CSFC-62, Fc1cccc(c1)c3nc2ccccc2c(c3)C(=O)Nc4nc5c(C)cccc5s4], for which, in data set [1], it took 25 ± 5 µM to reach half-maximal cytotoxicity (CC50 at 5 days). In data set [2], this compound yielded a 50% effective concentration (EC50) of 25000 nM and a S.I. of 1. Moreover, the fold increase in data set [2] (setting [3]) is given as 0.008.

As to `O=C(Nc1ccn(-c2ccccc2)n1)c1cc(-c2ccc3ccccc3c2)nc2ccccc12` [CSFC-146, O=C(c2cc(nc1ccccc12)c3cc4ccccc4cc3)Nc5ccn(n5)c6ccccc6], the CC50 at 5 days in data set [1] was > 100 µM. In data set [2], this compound registered an EC50 of 30 nM and a S.I. of 3333. Moreover, in data set [2] (setting [3]), the fold increase is recorded as 6.67.

Consider `O=C(Nc1nc2ccc(Br)cc2s1)c1cc(-c2ccccc2)nc2ccccc12` [CSFC-14, Brc1ccc2nc(NC(=O)c3cc(nc4ccccc43)c3ccccc3)sc2c1], for which the CC50 at 5 days in data set [1] is > 100 µM. Moreover, in data set [2], the EC50 stood at 1400 nM and the S.I. is 71. Besides, the fold increase in data set [2] (setting [4]) came to 0.05.

For `Cc1cccc2sc(NC(=O)c3cc(-c4ccccc4)nc4ccccc34)nc12` [CSFC-1, Cc1cccc2sc(nc12)NC(=O)c1cc(nc2ccccc21)c1ccccc1], the CC50 at 5 days in data set [1] was > 100 µM. Also, in data set [2], a half-maximal effect (EC50) was put at 300 nM and the S.I. amounted to 333. In addition, the fold increase in data set [2] (setting [4]) came out at 0.23.

For the compound `Cc1ccc(-n2ccc(NC(=O)c3cc(-c4ccccc4)nc4ccccc34)n2)cc1` [CSFC-141, Cc1ccc(cc1)n2ccc(n2)NC(=O)c4cc(nc3ccccc34)c5ccccc5], the 50% cytotoxic concentration (CC50) at 5 days in data set [1] is > 100 µM. In data set [2], a half-maximal response (EC50) required 600 nM and the S.I. came to 167. Further, the fold increase in data set [2] (setting [3]) was determined as 0.33.

Take `O=C(Nc1ccccc1O)c1cc(-c2ccccc2)nc2ccccc12` [CSFC-137, Oc1ccccc1NC(=O)c1cc(nc2ccccc12)c1ccccc1]: in data set [1], the CC50 at 5 days was > 100 µM. Further, in data set [2], the concentration giving a half-maximal response (EC50) was > 100000 nM and the S.I. turned out to be 1. In data set [2] (setting [4]), the fold increase is reported as 0.0007.

Take `Cc1ccc2nc(NC(=O)c3ncc[nH]3)sc2c1` [CSFC-30, Cc1ccc2nc(NC(=O)c3ncc[NH]3)sc2c1]: the CC50 at 5 days in data set [1] is > 100 µM. Also, in data set [2], the half-maximal effective concentration (EC50) is > 100000 nM and the S.I. is recorded as 1. Also, the fold increase in data set [2] (setting [4]) was determined as 0.0007.
